Active and inactive are the calls of the source.
Assays:
[1] = biological target: T1, Mannose-6-phosphate isomerase (Homo sapiens, UniProt P34949); experiment: human PMI inhibitors, high substrate, primary screen, biochemical, fluorescence intensity, high mannose 6-phosphate (AID 1220)
T1 sequence (P34949 whole entry): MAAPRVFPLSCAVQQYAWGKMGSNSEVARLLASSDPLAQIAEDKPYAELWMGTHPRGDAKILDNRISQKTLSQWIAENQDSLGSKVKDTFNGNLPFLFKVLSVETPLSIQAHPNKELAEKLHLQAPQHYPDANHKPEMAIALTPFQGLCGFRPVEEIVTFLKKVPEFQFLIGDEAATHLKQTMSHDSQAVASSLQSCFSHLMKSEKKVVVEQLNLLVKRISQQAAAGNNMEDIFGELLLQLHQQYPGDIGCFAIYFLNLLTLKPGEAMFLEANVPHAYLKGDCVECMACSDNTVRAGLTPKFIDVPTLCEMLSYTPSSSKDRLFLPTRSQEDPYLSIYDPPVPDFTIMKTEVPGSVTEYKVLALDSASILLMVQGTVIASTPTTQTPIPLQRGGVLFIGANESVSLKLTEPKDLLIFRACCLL

[2] = biological target: T2, Apoptotic protease-activating factor 1 (Homo sapiens, UniProt O14727); type: functional
T2 sequence (O14727 whole entry): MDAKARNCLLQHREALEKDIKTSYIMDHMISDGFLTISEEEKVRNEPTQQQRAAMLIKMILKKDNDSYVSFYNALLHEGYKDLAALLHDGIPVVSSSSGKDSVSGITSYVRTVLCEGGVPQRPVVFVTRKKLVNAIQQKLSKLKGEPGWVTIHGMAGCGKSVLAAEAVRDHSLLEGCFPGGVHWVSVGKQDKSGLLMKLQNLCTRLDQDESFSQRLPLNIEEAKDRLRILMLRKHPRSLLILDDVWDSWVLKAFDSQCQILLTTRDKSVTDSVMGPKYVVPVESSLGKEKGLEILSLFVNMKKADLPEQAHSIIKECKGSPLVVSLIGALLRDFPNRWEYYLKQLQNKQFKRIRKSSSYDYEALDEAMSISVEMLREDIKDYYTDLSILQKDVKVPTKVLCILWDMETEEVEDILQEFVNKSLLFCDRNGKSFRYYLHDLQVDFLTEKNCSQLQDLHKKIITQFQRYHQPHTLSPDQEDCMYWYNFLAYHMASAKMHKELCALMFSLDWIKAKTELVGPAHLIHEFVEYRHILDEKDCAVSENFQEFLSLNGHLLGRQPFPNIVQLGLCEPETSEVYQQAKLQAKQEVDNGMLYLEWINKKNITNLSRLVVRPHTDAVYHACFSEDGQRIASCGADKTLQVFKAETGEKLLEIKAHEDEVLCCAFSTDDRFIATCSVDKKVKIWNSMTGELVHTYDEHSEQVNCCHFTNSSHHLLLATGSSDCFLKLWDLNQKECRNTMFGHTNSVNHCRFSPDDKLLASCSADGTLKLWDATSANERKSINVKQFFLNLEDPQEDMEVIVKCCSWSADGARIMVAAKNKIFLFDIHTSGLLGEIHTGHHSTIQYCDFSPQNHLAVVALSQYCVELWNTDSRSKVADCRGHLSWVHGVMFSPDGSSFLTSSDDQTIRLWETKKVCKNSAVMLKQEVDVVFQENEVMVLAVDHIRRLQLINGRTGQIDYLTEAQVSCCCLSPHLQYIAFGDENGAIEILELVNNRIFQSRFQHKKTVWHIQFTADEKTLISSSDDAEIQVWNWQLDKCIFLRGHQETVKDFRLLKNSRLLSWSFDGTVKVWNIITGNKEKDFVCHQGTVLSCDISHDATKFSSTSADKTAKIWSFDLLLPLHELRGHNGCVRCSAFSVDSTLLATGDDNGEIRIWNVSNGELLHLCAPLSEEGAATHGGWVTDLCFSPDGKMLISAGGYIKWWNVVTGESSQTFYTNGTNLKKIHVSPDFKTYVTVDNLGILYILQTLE

[3] = biological target: Serine/threonine-protein phosphatase PP1-alpha catalytic subunit (Homo sapiens, UniProt P62136); experiment: PP1 phosphatase inhibitors, dose response, biochemical, fluorescence (AID 2394)
Sequence of Serine/threonine-protein phosphatase PP1-alpha catalytic subunit (P62136 whole entry, the tested form may be a part): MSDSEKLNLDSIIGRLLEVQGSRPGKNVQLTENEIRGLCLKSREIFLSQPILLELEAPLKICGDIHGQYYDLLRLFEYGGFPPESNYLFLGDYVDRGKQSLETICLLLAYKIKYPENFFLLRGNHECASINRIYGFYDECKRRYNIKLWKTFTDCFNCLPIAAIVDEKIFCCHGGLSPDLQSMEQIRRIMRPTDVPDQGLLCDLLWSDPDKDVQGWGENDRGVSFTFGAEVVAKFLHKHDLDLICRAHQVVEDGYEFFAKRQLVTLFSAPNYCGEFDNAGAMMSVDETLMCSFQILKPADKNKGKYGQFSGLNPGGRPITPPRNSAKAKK

[4] = biological target: T3, Oxysterols receptor LXR-beta (Homo sapiens, UniProt P55055); type: functional, cell-based;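 also: agonist activity at LXR measured by a cell-based luminescence readout across a dose range, run as a counterscreen for daf-12 agonists; potency for activation of Gal4-LXR reporter so compounds are agonists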
T3 sequence (P55055 whole entry): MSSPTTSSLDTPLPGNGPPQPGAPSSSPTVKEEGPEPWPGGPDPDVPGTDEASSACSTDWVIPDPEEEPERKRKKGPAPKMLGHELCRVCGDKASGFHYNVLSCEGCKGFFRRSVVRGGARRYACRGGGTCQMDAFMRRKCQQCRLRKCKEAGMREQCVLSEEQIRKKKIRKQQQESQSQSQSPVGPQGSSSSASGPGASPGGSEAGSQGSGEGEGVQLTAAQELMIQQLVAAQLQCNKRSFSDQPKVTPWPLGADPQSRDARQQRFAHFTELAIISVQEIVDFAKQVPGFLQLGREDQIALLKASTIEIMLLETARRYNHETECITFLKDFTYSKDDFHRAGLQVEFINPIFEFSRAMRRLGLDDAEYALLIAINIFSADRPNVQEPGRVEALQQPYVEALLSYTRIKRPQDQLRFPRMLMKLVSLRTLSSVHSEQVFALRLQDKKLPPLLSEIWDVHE

[5] = biological target: T3, Oxysterols receptor LXR-beta; experiment: LXR agonists, Gal4 luciferase reporter, dose response, counter-screen for ssDAF-12 agonist project, cell-based, luminescence, HEK293, S. stercoralis campaign (AID 720737); type: functional; conditions: read-out: IC50 (the source's name)
[6] = Luminescence-based cell-based high throughput dose response assay to identify activators of the DAF-12 from the parasite S. stercoralis (ssDAF-12).; type: functional
[7] = Counterscreen for IDE inhibitors: Luminescence-based cell-based high throughput dose response assay to identify compounds that are cytotoxic to HEK cells. [Related pubchem assays: 434962 (Primary screen (IDE inhibitors in singlicate)), 449730 (Counterscreen (Cytotoxicity in triplicate)), 435028 (Confirmation (IDE inhibitors in triplicate)) …; type: functional; conditions: HEK293

IC50 [1]	IC50 [2]	IC50 [3]	SMILES	EC50 [4]	EC50 [5]	IC50 [6]	IC50 [7]
> 50 µM (not active)	2.36 µM (active)	> 67 µM (not active)	COc1ccc(/C=N/Nc2cc(N(C)C)nc(N(C)C)n2)cc1				
			C/C(=N\c1cccc(C)c1)c1sc2ccccc2c1O	> 67.6 µM (inactive)	> 67.6 µM (inactive)	> 67.6 µM (inactive)	43.1 µM (not active)

Source: ChEMBL document CHEMBL1201862, “PubChem BioAssay data set” (2004)
